According to patent US20100065444A1, “PACK CONTAINING SOFT CAPSULES” (priority 2007, published 2010):

Experiments:
Assay type in all cases: physicochemical
[1] = Stability of multivitamin soft capsules in container with channel former and absorbent embedded in the inside walls, 30° C./65% RH
Procedure: (§1) Multivitamin soft capsules (active-compound composition and capsule shell as described below) are introduced into a resealable container in/on the inside wall(s) of which at least one channel former is embedded, at least over part of the area, together with at least one absorbent (type: M-3006-16 Activ-Vial) in the inside walls of which a molecular sieve having a capacity of 1.92 g is embedded.
(§2) The multivitamin soft capsules are stored at 30° C. and 65% relative humidity (RH), removed from storage after predetermined times, assessed visually with respect to their appearance and investigated analytically with respect to the amounts of active compound present.

[2] = Stability of multivitamin soft capsules in PVC/PVDC-aluminium blister, 40° C./75% RH
Text: as §1, with “introduced individually into a thermoformed cavity film made from PVC 250 μm+40 g/m^2 of PVDC and heat-sealed with aluminium foil (20 μm) and” for “introduced”
as §2, with “The blisters and containers containing the” for “The”, “40°” for “30°”, “75%” for “65%”, “present. The results are compiled in Tables 1 and 2.” for “present.”

[3] = Stability of multivitamin soft capsules in container with channel former and absorbent embedded in the inside walls, 40° C./75% RH
Text: as §1, with “introduced individually into a thermoformed cavity film made from PVC 250 μm+40 g/m^2 of PVDC and heat-sealed with aluminium foil (20 μm) and” for “introduced”
as §2, with “The blisters and containers containing the” for “The”, “40°” for “30°”, “75%” for “65%”, “present. The results are compiled in Tables 1 and 2.” for “present.”

[4] = Multivitamin soft capsule batch GD 06 0045, 6 months
[5] = Multivitamin soft capsule batch GD 06 0045, Start
[6] = Multivitamin soft capsule batch 9018401, 3 months
[7] = Multivitamin soft capsule batch 9018401, Start
[8] = Multivitamin soft capsule batch 9018802, 6 months
[9] = Multivitamin soft capsule batch 9018802, Start

| Compound | amount of active compound present [1, 4] | amount of active compound present, % of start [1, 4] | amount of active compound present [1, 5] | amount of active compound present, % of start [1, 5] | amount of active compound present [2, 6] | amount of active compound present, % of start [2, 6] | amount of active compound present [2, 7] | amount of active compound present, % of start [2, 7] | amount of active compound present [3, 8] | amount of active compound present, % of start [3, 8] | amount of active compound present [3, 9] | amount of active compound present, % of start [3, 9] |
| --- | --- | --- | --- | --- | --- | --- | --- | --- | --- | --- | --- | --- |
| Cyanocobalamine | 0.0158 mg/capsule | 97% | 0.0163 mg/capsule | 100% | 0.171 mg/capsule | 86% | 0.199 mg/capsule | 100% | 0.173 mg/capsule | 82% | 0.21 mg/capsule | 100% |
| Cc1ncc(C[n+]2csc(CCO)c2C)c(N)n1.Cl.[Cl-] [Thiamine*HCL] |  |  |  |  | 17.1 mg/capsule | 87% | 19.7 mg/capsule | 100% | 19.3 mg/capsule | 98% | 19.6 mg/capsule | 100% |
| Nc1nc2ncc(CNc3ccc(C(=O)N[C@@H](CCC(=O)O)C(=O)O)cc3)nc2c(=O)[nH]1 [Folic acid] | 0.603 mg/capsule | 104% | 0.581 mg/capsule | 100% | 0.57 mg/capsule | 92% | 0.62 mg/capsule | 100% | 0.520 mg/capsule | 87% | 0.60 mg/capsule | 100% |
| O=C(O)CCCC[C@@H]1SC[C@@H]2NC(=O)N[C@@H]21 [Biotin] | 0.185 mg/capsule | 105% | 0.176 mg/capsule | 100% |  |  |  |  |  |  |  |  |
| Cc1cc2nc3c(=O)[nH]c(=O)nc-3n(C[C@H](O)[C@H](O)[C@H](O)CO)c2cc1C [Riboflavin] | 2.23 mg/capsule | 107% | 2.09 mg/capsule | 100% |  |  |  |  |  |  |  |  |
| Cc1ncc(CO)c(CO)c1O.Cl [Pyridoxine*HCL] | 3.39 mg/capsule | 94% | 3.60 mg/capsule | 100% |  |  |  |  |  |  |  |  |
| CC(=O)Oc1c(C)c(C)c2c(c1C)CCC(C)(CCC[C@H](C)CCC[C@H](C)CCCC(C)C)O2 (some centres unmarked) [Tocopherol acetate] | 19.8 mg/capsule | 99% | 20.0 mg/capsule | 100% |  |  |  |  |  |  |  |  |
| CC(C)(CO)[C@@H](O)C(=O)NCCCO [Dexpanthenol] |  |  |  |  | 9.7 mg/capsule | 72% | 13.5 mg/capsule | 100% | 12.8 mg/capsule | 96% | 13.3 mg/capsule | 100% |
| CC(C)(CO)[C@@H](O)C(=O)NCCC(=O)[O-].CC(C)(CO)[C@@H](O)C(=O)NCCC(=O)[O-].[Ca+2] [Calcium panthotenate] | 14.9 mg/capsule | 96% | 15.6 mg/capsule | 100% |  |  |  |  |  |  |  |  |
| O=C1O[C@H]([C@@H](O)CO)C(O)=C1O [Ascorbic acid] | 115.0 mg/capsule | 95% | 120.5 mg/capsule | 100% | 159 mg/capsule | 76% | 209 mg/capsule | 100% | 210 mg/capsule | 99% | 213 mg/capsule | 100% |
| NC(=O)c1cccnc1 [Nicotinamide] | 20.1 mg/capsule | 98% | 20.6 mg/capsule | 100% |  |  |  |  |  |  |  |  |
| CC1=C(/C=C/C(C)=C/C=C/C(C)=C/C=C/C=C(C)/C=C/C=C(C)/C=C/C2=C(C)CCCC2(C)C)C(C)(C)CCC1 [β-Carotene] | 2.0 mg/capsule | 87% | 2.3 mg/capsule | 100% |  |  |  |  |  |  |  |  |
